The values that follow come from patent US11427553B2, “Dihydrooxadiazinones” (Bayer Aktiengesellschaft, priority 2017, dated 2022).

Assay [1] has as its target human full length PDE3A (Homo sapiens (Human), UniProt Q14432). The assay is described as follows: Assay 4 PDE3A enzyme inhibition (3H-cAMP SPA). It counts as biochemical. The following applies: Sf9 cell extract. The gist of the method: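 Hydrolysis of [8-3H]cAMP by Sf9-expressed full-length PDE3A was measured by scintillation proximity, with enzyme diluted to keep kinetics linear and substrate consumption below 70%. Incubation ran 60 min at room temperature at pH 7.5.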

In assay [2] the test system is SK-MEL-3 cells. The assay is described as follows: Assay 1 cell proliferation measurement (CTG, 72 h), SK-MEL-3. It counts as cell-based, human. To be noted: Homo sapiens, SK-MEL3; Assay 1, 72 h, Cell Titer Glo; read-out: SK-MEL-3 IC50 [nM] (melanoma). As for the experimental part: Cell Proliferation Measurement
The antiproliferative activity of the compounds of the general formula (I) was examined in vitro in human cancer cells. For this purpose, the appropriate number of cells (Hela: 800; SK-MEL-3: 1000; A549: 800) were plated in 384-well plates with appropriate growth medium ((A549: DMEM/Ham's F12 (Biochrom; #FG 4815 with stabile Glutamine), FCS 10% final (Biochrom; #S 0415); Hela: DMEM/Ham's F12 (Biochrom; #FG 4815 with stabile Glutamine), FCS 10% final (Biochrom; #S 0415); SK-MEL-3: McCoy's 5A (Biochrom; #F 1015), FCS 10% final (Biochrom; #S 0415), L-Alanyl-L-Glutamine final: 2 mM, (Biochrom; #K 0302)) and incubated at 37° C. overnight. After 24 h, cells on one plate (0 h plate) were treated with 30 μl/cavity of CTG solution (Promega Cell Titer Glo (catalogue #G755B and G756B)) and incubated at room temperature for 10 min, and luminescence was measured by means of a VICTOR V (Perkin Elmer), in order to determine cell viability on commencement of treatment. The cells on the test plate were treated with the compounds of the general formula (I) as and incubated at 37° C. for 72 h. The compounds were added to the cells by means of an HP D300 digital dispenser in a 10-step 2.5-fold dilution series generally starting at a maximum final drug concentration of 100 nM. As control, the cells were treated with vehicle (DMSO at 0.3% final concentration). After 72 h, the cells were treated with 30 μl/cavity of CTG solution (Promega Cell Titer Glo (catalogue #G755B and G756B)) and incubated at room temperature for 10 min. and luminescence was measured by means of a VICTOR V (Perkin Elmer), in order to determine cell viability at the end of treatment. The percentage effect on cell growth and the IC50 derived therefrom were determined for each test substance using the values from the 0 h plate […] and the DMSO control […]. The IC50 values were calculated using a 4-parameter fit.
On the technique in general: Cellular ATP, detected with luciferase, serves as a proxy for viable cell number.

Assay [3] deals with human full length PDE3B (Homo sapiens (Human), UniProt Q13370). The assay is described as follows: Assay 5 PDE3B enzyme inhibition (3H-cAMP SPA). The format is biochemical. The following applies: Sf9 cell extract. The gist of the method: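 Hydrolysis of tritiated cAMP by Sf9-expressed full-length human PDE3B proceeded 60 min at room temperature in Tris buffer pH 7.5 containing Mg2+, EDTA and BSA, with enzyme dilution keeping substrate consumption below 70%. IC50 derived from percent activity versus log compound concentration.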

For assay [4], the system named is HeLa cells. The assay is described as follows: Assay 1 cell proliferation measurement (CTG, 72 h), HeLa. To be noted: Homo sapiens, HeLa; Assay 1, 72 h, Cell Titer Glo; read-out: HeLa IC50 [nM] (Cervical cancer). The format is cell-based, human. The gist of the method:
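CTG luminescence readout after 72 h compound exposure at 37 °C; 10-point 2.5-fold dilutions from 100 nM max final; DMSO 0.3% vehicle. IC50 from 4-parameter fit, normalised to 0 h plate (max inhibition) and DMSO (min inhibition).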

A value given as a limit tells only on which side of the number the result lay.

Chain of human full length PDE3B (Q13370 whole entry): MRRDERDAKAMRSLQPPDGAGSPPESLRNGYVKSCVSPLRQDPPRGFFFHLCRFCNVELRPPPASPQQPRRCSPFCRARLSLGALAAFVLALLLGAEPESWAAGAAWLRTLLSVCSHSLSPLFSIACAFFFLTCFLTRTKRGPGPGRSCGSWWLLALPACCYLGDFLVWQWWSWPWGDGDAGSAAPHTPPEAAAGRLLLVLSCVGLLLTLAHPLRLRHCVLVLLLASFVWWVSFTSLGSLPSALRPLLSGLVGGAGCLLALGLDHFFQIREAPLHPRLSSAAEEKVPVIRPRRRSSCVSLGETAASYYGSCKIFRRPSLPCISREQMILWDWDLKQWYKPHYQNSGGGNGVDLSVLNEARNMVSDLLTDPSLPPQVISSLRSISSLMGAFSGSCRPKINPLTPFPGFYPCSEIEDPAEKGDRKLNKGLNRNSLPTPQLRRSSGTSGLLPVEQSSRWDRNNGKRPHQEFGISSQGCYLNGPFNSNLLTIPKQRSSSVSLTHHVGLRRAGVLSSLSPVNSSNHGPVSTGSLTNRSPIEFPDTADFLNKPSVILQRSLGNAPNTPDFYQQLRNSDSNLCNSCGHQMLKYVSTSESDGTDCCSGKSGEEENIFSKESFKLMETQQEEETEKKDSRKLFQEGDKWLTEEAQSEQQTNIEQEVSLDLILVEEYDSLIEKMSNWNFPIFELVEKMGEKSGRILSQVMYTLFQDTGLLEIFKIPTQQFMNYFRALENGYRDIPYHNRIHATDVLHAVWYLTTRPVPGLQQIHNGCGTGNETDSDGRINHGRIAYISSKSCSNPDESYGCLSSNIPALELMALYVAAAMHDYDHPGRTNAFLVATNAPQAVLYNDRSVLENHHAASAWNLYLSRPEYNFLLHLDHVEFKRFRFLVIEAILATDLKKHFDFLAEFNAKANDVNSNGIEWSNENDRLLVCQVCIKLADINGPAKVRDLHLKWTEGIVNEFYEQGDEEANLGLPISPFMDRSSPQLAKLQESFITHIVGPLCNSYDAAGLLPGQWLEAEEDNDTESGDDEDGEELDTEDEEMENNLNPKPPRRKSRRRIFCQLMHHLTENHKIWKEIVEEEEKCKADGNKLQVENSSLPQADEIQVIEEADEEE
Chain of human full length PDE3A (Q14432 whole entry): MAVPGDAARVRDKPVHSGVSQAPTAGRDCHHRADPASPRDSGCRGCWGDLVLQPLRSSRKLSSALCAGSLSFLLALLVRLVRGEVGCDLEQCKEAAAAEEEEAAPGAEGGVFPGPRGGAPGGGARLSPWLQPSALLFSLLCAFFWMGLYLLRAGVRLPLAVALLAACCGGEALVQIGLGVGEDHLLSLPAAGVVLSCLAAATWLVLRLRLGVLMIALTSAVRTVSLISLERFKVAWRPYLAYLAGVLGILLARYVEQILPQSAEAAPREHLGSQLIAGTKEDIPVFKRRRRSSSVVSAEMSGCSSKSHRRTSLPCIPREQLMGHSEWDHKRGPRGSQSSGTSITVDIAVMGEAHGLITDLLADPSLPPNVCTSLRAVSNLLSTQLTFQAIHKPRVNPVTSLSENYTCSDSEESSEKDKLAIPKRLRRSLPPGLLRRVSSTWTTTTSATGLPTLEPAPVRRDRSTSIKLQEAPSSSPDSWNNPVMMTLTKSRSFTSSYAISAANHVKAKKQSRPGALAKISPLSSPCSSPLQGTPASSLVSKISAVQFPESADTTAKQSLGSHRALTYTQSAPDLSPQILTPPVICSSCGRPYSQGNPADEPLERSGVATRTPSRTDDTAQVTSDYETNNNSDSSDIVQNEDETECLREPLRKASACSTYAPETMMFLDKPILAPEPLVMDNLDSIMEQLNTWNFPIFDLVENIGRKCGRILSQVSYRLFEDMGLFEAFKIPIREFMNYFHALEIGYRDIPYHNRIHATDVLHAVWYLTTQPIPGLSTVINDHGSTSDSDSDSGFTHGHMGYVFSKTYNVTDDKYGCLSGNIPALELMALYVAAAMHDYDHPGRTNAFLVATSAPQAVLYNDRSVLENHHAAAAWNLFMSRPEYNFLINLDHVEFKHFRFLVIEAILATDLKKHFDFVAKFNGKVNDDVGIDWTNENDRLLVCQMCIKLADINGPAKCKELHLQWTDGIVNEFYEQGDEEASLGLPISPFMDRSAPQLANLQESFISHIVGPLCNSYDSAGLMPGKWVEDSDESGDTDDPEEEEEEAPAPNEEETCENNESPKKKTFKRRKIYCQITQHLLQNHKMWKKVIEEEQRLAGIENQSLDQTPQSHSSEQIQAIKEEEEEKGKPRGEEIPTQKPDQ

Broadly, the IC50 is the concentration that inhibits the measured activity by half. As for `CC1CC(C)N1c1ccc(C2=NNC(=O)OC2)cc1C(F)(F)F` (racemic) [Example 207, (rac)-5-{4-[2,4-Dimethylazetidin-1-yl]-3-(trifluoromethyl)phenyl}-3,6-dihydro-2H-1,3,4-oxadiazin-2-one], the IC50 in assay [1] was determined as 0.074 µM; in assay [2], 14 nM; in assay [3], 0.18 µM; in assay [4] it was 9 nM.
In the same order, the values of `CC1(F)CCN(c2ccc(C3=NNC(=O)OC3)cc2F)CC1` [Example 5, 5-[3-Fluoro-4-(4-fluoro-4-methylpiperidin-1-yl)phenyl]-3,6-dihydro-2H-1,3,4-oxadiazin-2-one] are 0.139 µM, 5 nM, 0.097 µM and 3 nM.
For the compound `Cc1cc(-c2ccc(C3=NNC(=O)OC3)cc2F)ccn1` [Example 79, 5-[3-Fluoro-4-(2-methylpyridin-4-yl)phenyl]-3,6-dihydro-2H-1,3,4-oxadiazin-2-one], the half-maximal inhibitory concentration (IC50) is 0.029 µM in assay [1], 25 nM in assay [2], 0.071 µM in assay [3] and 12 nM in assay [4].
For `O=C1NN=C(c2ccc([C@H]3CC[C@H](O)CC3)c(C(F)(F)F)c2)CO1` [Example 272, (trans)-5-{4-[4-hydroxycyclohexyl]-3-(trifluoromethyl)phenyl}-3,6-dihydro-2H-1,3,4-oxadiazin-2-one] the same measures were 0.019 µM, 1 nM, 0.01 µM and 1 nM.
In the same order, the values of `Cc1cc(C2=NNC(=O)OC2)ccc1-c1cn[nH]c1` [Example 11, 5-[3-Methyl-4-(1H-pyrazol-4-yl)phenyl]-3,6-dihydro-2H-1,3,4-oxadiazin-2-one] are 0.084 µM, 49 nM, 0.065 µM and 19 nM.
Take `Nc1cc(-c2ccc(C3=NNC(=O)OC3)cc2F)ccn1` [Example 90, 5-[4-(2-Aminopyridin-4-yl)-3-fluorophenyl]-3,6-dihydro-2H-1,3,4-oxadiazin-2-one]: the IC50 in assay [1] was determined as 0.043 µM; in assay [2] it was 30 nM; in assay [3] it was 0.1 µM; in assay [4] it was 16 nM.
In the same order, the values of `Cc1ncc(-c2ccc(C3=NNC(=O)OC3)cc2F)cn1` [Example 94, 5-[3-Fluoro-4-(2-methylpyrimidin-5-yl)phenyl]-3,6-dihydro-2H-1,3,4-oxadiazin-2-one] are 0.091 µM, 36 nM, 0.28 µM and 16 nM.
For `O=C1NN=C(c2ccc(-c3cn[nH]c3)c(C(F)F)c2)CO1` [Example 202, 5-(3-(difluoromethyl)-4-(1H-pyrazol-4-yl)phenyl)-3H-1,3,4-oxadiazin-2(6H)-one], the IC50 in assay [1] stood at 0.076 µM; in assay [2], 12 nM; in assay [3], 0.063 µM; in assay [4] it was 5 nM.
As to `CC(C)n1cc(-c2ccc(C3=NNC(=O)OC3)cc2C(F)F)cn1` [Example 263, 5-{3-(Difluoromethyl)-4-[1-(propan-2-yl)-1H-pyrazol-4-yl]phenyl}-3,6-dihydro-2H-1,3,4-oxadiazin-2-one], the IC50 in assay [1] came out at 0.05 µM; in assay [2] it was 32 nM; in assay [3], 0.046 µM; in assay [4], 9 nM.
Consider `Cc1ccc(-c2ccc(C3=NNC(=O)OC3)cc2C(F)F)cn1` [Example 200, 5-[3-(Difluoromethyl)-4-(6-methylpyridin-3-yl)phenyl]-3,6-dihydro-2H-1,3,4-oxadiazin-2-one], for which the IC50 was 0.034 µM in assay [1], 22 nM in assay [2], 0.066 µM in assay [3] and 10 nM in assay [4].
As to `C[C@@H]1OC(=O)NN=C1c1ccc(N2CCOCC2)c(F)c1` [Example 25-1, (6S)-5-(3-Fluoro-4-morpholinophenyl)-6-methyl-3,6-dihydro-2H-1,3,4-oxadiazin-2-one], the IC50 in assay [1] came to 0.044 µM; in assay [2], 3 nM; in assay [3], 0.022 µM; in assay [4], 2 nM.
For `O=C1NN=C(c2ccc(-c3c(F)cccc3F)c(F)c2)CO1` [Example 115, 5-(2,2′,6′-Trifluoro[1,1′-biphenyl]-4-yl)-3,6-dihydro-2H-1,3,4-oxadiazin-2-one] the same measures were 0.092 µM, 7 nM, 0.1 µM and 4 nM.
In the same order, the values of `O=C1NN=C(c2ccc(-c3ccc(C(F)(F)F)nc3)c(C(F)(F)F)c2)CO1` [Example 36, 5-{3-(Trifluoromethyl)-4-[6-(trifluoromethyl)pyridin-3-yl]phenyl}-3,6-dihydro-2H-1,3,4-oxadiazin-2-one] are 0.28 µM, 39 nM, 0.32 µM and 23 nM.
For `O=C1NN=C(c2cc(F)c(-c3cnn(C(F)F)c3)c(C(F)(F)F)c2)CO1` [Example 193, 5-{4-[1-(Difluoromethyl)-1H-pyrazol-4-yl]-3-fluoro-5-(trifluoromethyl)phenyl}-3,6-dihydro-2H-1,3,4-oxadiazin-2-one] the same measures were 0.195 µM, 9 nM, 0.215 µM and 5 nM.
On to `CC(C)=Cc1ccc(C2=NNC(=O)OC2)cc1OC(F)(F)F` [Example 164, 5-[4-(2-Methylprop-1-en-1-yl)-3-(trifluoromethoxy)phenyl]-3,6-dihydro-2H-1,3,4-oxadiazin-2-one], for which the IC50 was 0.3 µM in assay [1], 8 nM in assay [2], 0.2 µM in assay [3] and 6 nM in assay [4].
As to `CC1CN(c2c(F)cc(C3=NNC(=O)OC3C)cc2F)CCO1` (centres unmarked) [Example 18, 5-{3,5-Difluoro-4-[2-methylmorpholin-4-yl]phenyl}-6-methyl-3,6-dihydro-2H-1,3,4-oxadiazin-2-one], the IC50 in assay [1] was 0.45 µM; in assay [2], 74 nM; in assay [3] it was 0.22 µM; in assay [4], 18 nM.
In the same order, the values of `CC1(CNc2ccc(C3=NNC(=O)OC3)cc2C(F)(F)F)COC1` [Example 213, 5-[4-{[(3-Methyloxetan-3-yl)methyl]amino}-3-(trifluoromethyl)phenyl]-3,6-dihydro-2H-1,3,4-oxadiazin-2-one] are 0.068 µM, 21 nM, 0.071 µM and 14 nM.
In the case of `CC(C)n1cc(-c2ccc(C3=NNC(=O)OC3)cc2C(F)(F)F)cn1` [Example 153, 5-{4-[1-(Propan-2-yl)-1H-pyrazol-4-yl]-3-(trifluoromethyl)phenyl}-3,6-dihydro-2H-1,3,4-oxadiazin-2-one], the IC50 came out at 0.015 µM in assay [1], 7 nM in assay [2], 0.026 µM in assay [3] and 4 nM in assay [4].
`Cc1cc(C#N)ccc1-c1ccc(C2=NNC(=O)OC2)cc1F` [Example 163, 2′-Fluoro-2-methyl-4′-(2-oxo-3,6-dihydro-2H-1,3,4-oxadiazin-5-yl)[1,1′-biphenyl]-4-carbonitrile]: the IC50 stood at 0.035 µM in assay [1], 14 nM in assay [2], 0.051 µM in assay [3] and 8 nM in assay [4].
As to `Cc1n[nH]c2cc(-c3ccc(C4=NNC(=O)OC4)cc3C(F)(F)F)ccc12` [Example 327, 5-[4-(3-methyl-1H-indazol-6-yl)-3-(trifluoromethyl)phenyl]-3,6-dihydro-2H-1,3,4-oxadiazin-2-one], the IC50 is 0.011 µM in assay [1], greater than 100 nM in assay [2], 0.016 µM in assay [3] and greater than 100 nM in assay [4].
